Measurements taken from patent publication EP0050799B1, “New processes for the production of di-alkyl esters and optically active mono-alkyl esters of 3-aminoglutaric acid” (ZAIDAN HOJIN BISEIBUTSU KAGAKU KENKYU KAI, priority 1980, dated 1982).
In brackets after ≈: the same amount, converted by molar mass.

Tested on: Staphylococcus aureus
Experiment: antibacterial activity test (minimum concentration inhibitory to growth)
Assay type: cell-based
Conditions: for MIC: Staphylococcus aureus; for antibacterial activity against Gram-positive bacteria, particularly against Staphylococcus aureus: general statement in words

| SMILES | MIC | antibacterial activity against Gram-positive bacteria, particularly against Staphylococcus aureus |
| --- | --- | --- |
| COC(=O)C[C@@H](N)CC(=O)O [Example 1 (b), β-(S)-aminoglutaric acid mono-methyl ester] | 10 to 100 µg/mL (≈ 62.1 to 621 µM) | exhibit antibacterial activity |
| CCOC(=O)C[C@@H](N)CC(=O)O [Example 2, β-(S)-Aminoglutaric acid mono-ethyl ester] | 20 to 100 µg/mL (≈ 114 to 571 µM) | exhibit antibacterial activity |
| COC(=O)C[C@H](N)CC(=O)O [Example 4, β-(R)-aminoglutaric acid mono- methyl ester] | 20 µg/mL (≈ 124 µM) | exhibit an antibacterial activity |
| CCOC(=O)C[C@H](N)CC(=O)O [Example 7, β-(R)-Aminoglutaric acid mono-ethyl ester] | 30 to 100 µg/mL (≈ 171 to 571 µM) |  |
